Assay results from PubChem BioAssay (NCI).
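In this assay, cells in 96-well plates receive the compound at five concentrations for 48 hours. Endpoints are linearly interpolated between the surrounding concentrations. At the GI50, growth is halved. TGI: concentration producing complete growth inhibition.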

Legend:
Experiment in all cases: growth of human tumour cells (NCI), 48 h
HCT-116 colon = tested on: HCT-116 colon
K-562 leukemia = tested on: K-562 leukemia
LOX IMVI melanoma = tested on: LOX IMVI melanoma
MDA-MB-231 breast = tested on: MDA-MB-231 breast
MDA-N = tested on: MDA-N
NCI-H226 lung = tested on: NCI-H226 lung
OVCAR-5 ovarian = tested on: OVCAR-5 ovarian
SK-MEL-28 melanoma = tested on: SK-MEL-28 melanoma
TK-10 renal = tested on: TK-10 renal
HCC-2998 colon = tested on: HCC-2998 colon

`Cc1[nH]c2nccn2c(=O)c1CCO` gave a TGI (HCT-116 colon) greater than 10 µM, a TGI (K-562 leukemia) greater than 10 µM and a TGI (LOX IMVI melanoma) greater than 10 µM. It also gave a TGI (MDA-MB-231 breast) greater than 10 µM, a TGI (MDA-N) greater than 10 µM and a TGI (NCI-H226 lung) greater than 10 µM. For the same molecule, the TGI (OVCAR-5 ovarian) was greater than 10 µM, the TGI (SK-MEL-28 melanoma) was greater than 10 µM and the TGI (TK-10 renal) was greater than 10 µM.
`CCCCCCCCCCCC[N+]12CC[N+](C)(CC1)CC2` was tested, and the TGI (HCC-2998 colon) was 23 µM, the TGI (HCT-116 colon) was greater than 100 µM and the TGI (K-562 leukemia) was 53.2 µM. The TGI (LOX IMVI melanoma) was 43 µM, the TGI (NCI-H226 lung) was 66.5 µM and the TGI (OVCAR-5 ovarian) was 41 µM. It also gave a TGI (SK-MEL-28 melanoma) greater than 100 µM and a TGI (TK-10 renal) of 5.6 µM.
Work on `NC(=O)/N=C/c1c(O)c2ccccc2oc1=O` yielded a TGI (HCC-2998 colon) greater than 100 µM, a TGI (HCT-116 colon) greater than 100 µM and a TGI (K-562 leukemia) greater than 100 µM. For the same molecule, the TGI (LOX IMVI melanoma) was greater than 100 µM, the TGI (NCI-H226 lung) was greater than 100 µM and the TGI (OVCAR-5 ovarian) was greater than 100 µM. The TGI (SK-MEL-28 melanoma) was greater than 100 µM and the TGI (TK-10 renal) was greater than 100 µM.
For `CC#COS(=O)(=O)c1ccc(C)cc1`, the TGI (HCC-2998 colon) was greater than 100 µM, the TGI (HCT-116 colon) was greater than 100 µM and the TGI (K-562 leukemia) was greater than 100 µM. The TGI (LOX IMVI melanoma) was greater than 100 µM, the TGI (NCI-H226 lung) was greater than 100 µM and the TGI (OVCAR-5 ovarian) was greater than 100 µM. The TGI (TK-10 renal) was greater than 100 µM.
`CC[C@]12C=CCN3CC[C@@]4(c5cc(Br)c(OC)cc5N(C)[C@H]4[C@@](O)(C(=O)NC(Cc4c[nH]c5ccccc45)C(=O)OC)[C@@H]1O)[C@@H]32` (some centres not stated) gave a TGI (HCT-116 colon) greater than 100 µM, a TGI (K-562 leukemia) greater than 100 µM and a TGI (LOX IMVI melanoma) of 90.9 µM. It also gave a TGI (MDA-MB-231 breast) greater than 100 µM, a TGI (MDA-N) greater than 100 µM and a TGI (NCI-H226 lung) greater than 100 µM. The TGI (OVCAR-5 ovarian) was greater than 100 µM and the TGI (SK-MEL-28 melanoma) was greater than 100 µM.
In the case of `Cc1ccc(NC(=O)C2C3CCC(O3)C2C(=O)O)cc1` (configuration not stated), the TGI (HCC-2998 colon) is reported as greater than 100 µM, the TGI (HCT-116 colon) is reported as greater than 54.7 µM and the TGI (K-562 leukemia) is reported as greater than 77.6 µM. It also gave a TGI (LOX IMVI melanoma) greater than 54.8 µM, a TGI (NCI-H226 lung) greater than 100 µM and a TGI (OVCAR-5 ovarian) greater than 100 µM. The TGI (SK-MEL-28 melanoma) was greater than 100 µM and the TGI (TK-10 renal) was greater than 100 µM.
`CC(=O)OCC1OC(N=[N+]=[N-])C(OC(C)=O)C(OC(C)=O)C1OC1OC(COC(C)=O)C(OC(C)=O)C(OC(C)=O)C1OC(C)=O` (configuration not stated) showed a TGI (HCC-2998 colon) greater than 100 µM, a TGI (K-562 leukemia) greater than 100 µM and a TGI (LOX IMVI melanoma) greater than 100 µM. The TGI (OVCAR-5 ovarian) was greater than 100 µM, the TGI (SK-MEL-28 melanoma) was greater than 100 µM and the TGI (TK-10 renal) was greater than 100 µM.
Work on `COc1ccc([C@H]2CC3C(=O)N(c4ccc(OC)cc4)C(=O)C3c3[nH]c4ccccc4c32)cc1` (some centres not stated) yielded a TGI (HCC-2998 colon) greater than 100 µM, a TGI (HCT-116 colon) greater than 100 µM and a TGI (K-562 leukemia) greater than 100 µM. It also gave a TGI (LOX IMVI melanoma) greater than 100 µM, a TGI (NCI-H226 lung) greater than 100 µM and a TGI (OVCAR-5 ovarian) greater than 100 µM. The TGI (SK-MEL-28 melanoma) was greater than 100 µM and the TGI (TK-10 renal) was greater than 100 µM.
`Cn1c(=O)c2[nH]c(SC/C(=N/O)c3ccc(Br)cc3)nc2n(C)c1=O` was tested, and the GI50 (HCT-116 colon) was 3.19 µM, the TGI (HCT-116 colon) was greater than 100 µM and the GI50 (K-562 leukemia) was 25.9 µM. It also gave a TGI (K-562 leukemia) greater than 100 µM, a GI50 (LOX IMVI melanoma) of 3.12 µM and a TGI (LOX IMVI melanoma) greater than 100 µM. For the same molecule, the GI50 (MDA-MB-231 breast) was 2.14 µM, the TGI (MDA-MB-231 breast) was 4.38 µM and the GI50 (TK-10 renal) was 1.92 µM. The TGI (TK-10 renal) was 3.41 µM.
For `CSC(C1c2ccccc2N(C)c2[nH]c(=O)n(C)c(=O)c21)S(=O)(=O)c1ccc(C)cc1` (configuration not stated), the TGI (HCC-2998 colon) was greater than 100 µM, the TGI (HCT-116 colon) was greater than 100 µM and the TGI (K-562 leukemia) was greater than 100 µM. It also gave a TGI (LOX IMVI melanoma) greater than 100 µM, a TGI (NCI-H226 lung) greater than 100 µM and a TGI (OVCAR-5 ovarian) greater than 100 µM. It also gave a TGI (SK-MEL-28 melanoma) greater than 100 µM and a TGI (TK-10 renal) greater than 100 µM.
For `O=C(CC(C(=O)c1cccs1)c1ccsc1)c1ccc(Cl)s1` (configuration not stated), the TGI (HCC-2998 colon) was greater than 100 µM, the TGI (HCT-116 colon) was greater than 100 µM and the TGI (K-562 leukemia) was greater than 100 µM. For the same molecule, the TGI (LOX IMVI melanoma) was greater than 100 µM, the TGI (MDA-MB-231 breast) was greater than 100 µM and the TGI (NCI-H226 lung) was greater than 100 µM. The TGI (OVCAR-5 ovarian) was greater than 100 µM, the TGI (SK-MEL-28 melanoma) was greater than 100 µM and the TGI (TK-10 renal) was greater than 100 µM.
In the case of `O=S(=O)(c1ccccc1)c1ccc(-c2nc(-c3ccc4c(c3)Sc3ccccc3S4)cs2)cc1`, the TGI (HCC-2998 colon) is reported as greater than 100 µM, the TGI (HCT-116 colon) is reported as greater than 100 µM and the TGI (K-562 leukemia) is reported as greater than 100 µM. For the same molecule, the TGI (LOX IMVI melanoma) was greater than 100 µM, the TGI (MDA-MB-231 breast) was greater than 100 µM and the TGI (NCI-H226 lung) was greater than 100 µM. The TGI (OVCAR-5 ovarian) was greater than 100 µM and the TGI (TK-10 renal) was 73.6 µM.
`Brc1ccc(-c2cc3c(cc2C2SCCS2)OCO3)cc1` showed a TGI (HCC-2998 colon) greater than 100 µM, a TGI (HCT-116 colon) greater than 100 µM and a TGI (K-562 leukemia) greater than 100 µM. For the same molecule, the TGI (LOX IMVI melanoma) was greater than 100 µM, the TGI (NCI-H226 lung) was 40.3 µM and the TGI (OVCAR-5 ovarian) was greater than 100 µM. For the same molecule, the TGI (SK-MEL-28 melanoma) was greater than 100 µM and the TGI (TK-10 renal) was greater than 100 µM.
In the case of `COc1ccc(C2=Nc3ccccc3N=C(SC)C2)cc1`, the TGI (HCC-2998 colon) is reported as 74.4 µM, the TGI (HCT-116 colon) is reported as greater than 100 µM and the TGI (K-562 leukemia) is reported as 53.2 µM. The TGI (LOX IMVI melanoma) was 34.6 µM, the TGI (NCI-H226 lung) was greater than 100 µM and the TGI (OVCAR-5 ovarian) was greater than 100 µM. The TGI (SK-MEL-28 melanoma) was greater than 100 µM and the TGI (TK-10 renal) was greater than 100 µM.
`COc1ccc(C2=NNC(=O)c3ccccc3N2c2nc(-c3cccs3)nc3cc(OC)c(OC)cc23)cc1` showed a TGI (HCC-2998 colon) of 7.21 µM, a TGI (HCT-116 colon) greater than 100 µM and a TGI (K-562 leukemia) greater than 100 µM. The TGI (MDA-MB-231 breast) was 13.5 µM, the TGI (NCI-H226 lung) was 20.6 µM and the TGI (OVCAR-5 ovarian) was greater than 100 µM. For the same molecule, the TGI (SK-MEL-28 melanoma) was 5 µM and the TGI (TK-10 renal) was 21 µM.
For `COc1ccccc1C(=O)OCC1CCCN2CCCCC12` (configuration not stated), the TGI (HCC-2998 colon) was 42.2 µM, the TGI (HCT-116 colon) was greater than 100 µM and the TGI (K-562 leukemia) was greater than 100 µM. The TGI (LOX IMVI melanoma) was 34.8 µM, the TGI (MDA-MB-231 breast) was 61.6 µM and the TGI (NCI-H226 lung) was greater than 100 µM. For the same molecule, the TGI (SK-MEL-28 melanoma) was 65.7 µM and the TGI (TK-10 renal) was greater than 100 µM.
With `COc1ccc(NC(=O)C(=O)Cc2ccc([N+](=O)[O-])c([N+](=O)[O-])c2CC(=O)C(=O)Nc2ccc(OC)cc2OC)c(OC)c1` the TGI (HCC-2998 colon) was greater than 100 µM, the TGI (HCT-116 colon) was greater than 100 µM and the TGI (K-562 leukemia) was greater than 100 µM. It also gave a TGI (LOX IMVI melanoma) greater than 100 µM, a TGI (NCI-H226 lung) greater than 100 µM and a TGI (OVCAR-5 ovarian) greater than 100 µM. The TGI (SK-MEL-28 melanoma) was greater than 100 µM and the TGI (TK-10 renal) was greater than 100 µM.
